Assay results published in publication PMC7822874, “Chemoprotective antimalarials identified through quantitative high-throughput screening of Plasmodium blood and liver stage parasites” (Scientific Reports, 2021).
Like-named read-outs stand apart in the source and are kept apart here.

Assays:
Assay type in all cases: cell-based, Plasmodium falciparum
[1] = tested on: P. falciparum Dd2 Cytb V259L; assay: SYBR Green ABS proliferation assay, NCGC00473217 selected clone F06; settings: for AC50: Plasmodium falciparum
In short: (§1)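 Drug-selected P. falciparum Dd2 clones carrying Cytb mutations, obtained by limiting-dilution cloning, grown in RBCs at 37 °C under 5% CO2/5% O2/90% N2. Growth read by SYBR Green-I fluorescence at 72 h and normalized to controls.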

[2] = tested on: P. falciparum Dd2 (clone B2) asexual blood stage parasites; assay: P. falciparum Dd2 asexual blood stage SYBR Green-I 72 h proliferation assay (qHTS); settings: Plasmodium falciparum
[3] = tested on: P. falciparum Dd2 Cytb G131S; assay: SYBR Green ABS proliferation assay, NCGC00374598 selected clone C11; settings: for AC50: Plasmodium falciparum
In short: as §1

[4] = tested on: P. falciparum Dd2 Cytb A122D; assay: SYBR Green ABS proliferation assay, NCGC00473217 selected clone F12; settings: for AC50: Plasmodium falciparum
In short: as §1

[5] = tested on: P. falciparum Dd2 Cytb F123L; assay: SYBR Green ABS proliferation assay, NCGC00473217 selected clone G08; settings: for AC50: Plasmodium falciparum
In short: as §1

[6] = DD2, […], averaged from three independent replicates, top concentration 29 µM, read-out: Average AC50 (Log[M]), NCGC00473217 clone F06 (Cytb V259L) (converted)
[7] = DD2, Dd2 parental, Hill fit, averaged from three independent replicates, top concentration 29 µM, read-out: Average AC50 (Log[M]), Dd2 (converted)
[8] = DD2, […], averaged from three independent replicates, top concentration 29 µM, read-out: Average AC50 (Log[M]), NCGC00374598 clone C11 (Cytb G131S) (converted)
[9] = DD2, […], averaged from three independent replicates, top concentration 29 µM, read-out: Average AC50 (Log[M]), NCGC00473217 clone F12 (Cytb A122D) (converted)
[10] = DD2, […], averaged from three independent replicates, top concentration 29 µM, read-out: Average AC50 (Log[M]), NCGC00473217 clone G08 (Cytb F123L) (converted)
[11] = DD2, NCGC00473217 selected clone, read-out: AC50 Log[M] ± SD, Cytb V259L (converted)
[12] = DD2, Suppl Table 6, read-out: AC50 (mM), Dd2 Cytb V259L
[13] = DD2, 72 h, SYBR Green 72 h, WT Dd2-B2, read-out: AC50 Log[M] ± SD, Dd2-B2 (parental line) (converted)
[14] = DD2, Suppl Table 6, read-out: AC50 (mM), WT (Dd2-B2)
[15] = DD2, NCGC00374598 selected clone, read-out: AC50 Log[M] ± SD, Cytb G131S (converted)
[16] = DD2, Suppl Table 6, read-out: AC50 (mM), Dd2 Cytb G131S
[17] = DD2, NCGC00473217 selected clone, read-out: AC50 Log[M] ± SD, Cytb A122D (converted)
[18] = DD2, Suppl Table 6, read-out: AC50 (mM), Dd2 Cytb A122D
[19] = DD2, NCGC00473217 selected clone, read-out: AC50 Log[M] ± SD, Cytb F123L (converted)
[20] = DD2, Suppl Table 6, read-out: AC50 (mM), Dd2 Cytb F123L

| Structure (SMILES) | AC50 [1, 6] | AC50 [2, 7] | AC50 [3, 8] | AC50 [4, 9] | AC50 [5, 10] | other results |
| --- | --- | --- | --- | --- | --- | --- |
| CCCN1C(CC(C)C)=N[S+](=O)([O-])c2cc(NC(=O)c3cc4ncccn4n3)ccc21 [NCGC00521137-01] | 7.38e-06 M | 1e-05 M | 5.97e-06 M | 9.29e-06 M | 1.04e-05 M |  |
| CCCN1C(CC(C)C)=N[S+](=O)([O-])c2cc(NC(=O)c3cccc(OC(F)(F)F)c3)ccc21 [NCGC00531537-01] | 3.99e-06 M | 1.12e-05 M | 1.12e-05 M | 1e-05 M | 7.96e-06 M |  |
| O=C1C(O)=C([C@H]2CC[C@H](c3ccc(Cl)cc3)CC2)C(=O)c2ccccc21 [Atovaquone, atovaquone, reference compound] |  |  |  |  |  | susceptibility of V259L variant compared to parental line [1]: significantly less susceptible; AC50 [1, 11]: 2.34e-08 M; AC50 [1, 12]: 2.34e-08 M; AC50 [2, 13]: 3.31e-09 M; AC50 [2, 14]: 3.3e-09 M; potency in G131S mutant lines compared to parental line [3]: potency was not compromised; AC50 [3, 15]: 2.19e-09 M; AC50 [3, 16]: 2.2e-09 M; susceptibility of A122D mutant compared to parental line [4]: significantly more susceptible; AC50 [4, 17]: 5.5e-10 M; AC50 [4, 18]: 5.5e-10 M; susceptibility of F123L mutant compared to parental line [5]: significantly more susceptible; AC50 [5, 19]: 8.71e-10 M; AC50 [5, 20]: 9e-10 M |
| CCCN1C(CC(C)C)=N[S+](=O)([O-])c2cc(NC(=O)c3ccon3)ccc21 [NCGC00521044-01] | 7.96e-06 M | 1.26e-05 M | 6.7e-06 M | 9.46e-06 M | 4.15e-07 M |  |
| CCCN1C(CC(C)C)=N[S+](=O)([O-])c2cc(NC(=O)Nc3ccccc3)ccc21 [NCGC00521878-01] | 1.04e-05 M | 3.56e-06 M | 7.96e-06 M | 8.28e-06 M | 1.59e-05 M |  |
| CCCN1C(CC(C)C)=N[S+](=O)([O-])c2cc(NC(=O)C3CCCCC3)ccc21 [NCGC00521107-01] | 5.02e-06 M | 6.32e-06 M | 6.32e-06 M | 1.04e-05 M | 8.93e-06 M |  |
| CCCN1C(CC(C)C)=N[S+](=O)([O-])c2cc(NC(=O)c3ncco3)ccc21 [NCGC00521053-01] | 9.66e-06 M | 1.08e-05 M | 1.12e-05 M | 7.96e-06 M | 1.42e-05 M |  |
| CCCN1C(CC(C)C)=N[S+](=O)([O-])c2cc(NC(=O)c3sccc3C)ccc21 [NCGC00521035-01] | 6.84e-06 M | 1.59e-06 M | 1.65e-06 M | 2.82e-06 M | 9.46e-06 M |  |
| CCCN1C(CC(C)C)=N[S+](=O)([O-])c2cc(NC(=O)C3CCCC3)ccc21 [NCGC00521158-01] | 2.16e-06 M | 2.72e-06 M | 4.15e-06 M | 5.22e-06 M | 1.17e-05 M |  |
| CC(C)CC1=N[S+](=O)([O-])c2cc(NC(=O)c3ccco3)ccc2N1C [NCGC00510958-01] | 1.26e-05 M | 5.32e-06 M | 2.82e-06 M | 5.02e-06 M | 7.96e-07 M |  |
| CCCN1C(CC(C)C)=N[S+](=O)([O-])c2cc(NC(=O)c3ccccc3F)ccc21 [NCGC00523540-01] | 2.16e-06 M | 4.66e-06 M | 4.48e-06 M | 2.82e-06 M | 2.72e-06 M |  |
| Cc1cc(Nc2ccc(S(F)(F)(F)(F)F)cc2)n2nc(C(C)(F)F)nc2n1 [DSM265, reference compound] |  |  |  |  |  | susceptibility of V259L variant compared to parental line [1]: unchanged; AC50 [1, 11]: 3.16e-08 M; AC50 [1, 12]: 3.16e-08 M; AC50 [2, 13]: 3.8e-08 M; AC50 [2, 14]: 3.8e-08 M; AC50 [3, 15]: 2.4e-08 M; AC50 [3, 16]: 2.4e-08 M; susceptibility of A122D mutant compared to parental line [4]: significantly more susceptible; AC50 [4, 17]: 1.41e-08 M; AC50 [4, 18]: 1.41e-08 M; susceptibility of F123L mutant compared to parental line [5]: significantly more susceptible; AC50 [5, 19]: 1.95e-08 M; AC50 [5, 20]: 1.95e-08 M |
| CCCN1C(CC(C)C)=N[S+](=O)([O-])c2cc(NC(=O)c3sccc3Cl)ccc21 [NCGC00531529-01] | 3.7e-06 M | 2.24e-06 M | 5.86e-07 M | 6.1e-07 M | 2.24e-06 M |  |
| CCCN1C(CC(C)C)=N[S+](=O)([O-])c2cc(NC(=O)c3ccc4ccccc4n3)ccc21 [NCGC00521161-01] | 2.24e-06 M | 5.97e-06 M | 7.96e-07 M | 3.99e-06 M | 2.82e-06 M |  |
